One compound from patent US12351587B2, “Bicyclic compound as RIP-1 kinase inhibitor and application thereof” (MEDSHINE DISCOVERY INC., priority 2019, dated 2025) can be followed below.

Data set [1] has as its system TNF-α/zVAD induced systemic inflammatory response syndrome (SIRS). As to the kind of experiment: Mouse model of TNF-α induced systemic inflammatory response syndrome (SIRS). Type of data set: in vivo. To be noted: 10 mpk by gavage. As for the experimental part:
Assay Example 4: In Vivo Efficacy Study in Mouse Model of Tumor Necrosis Factor (TNF-α) Induced Systemic Inflammatory Response Syndrome (SIRS)
Instruments and Materials • 1) Electronic balance: Brand Changzhou Tianzhiping Instrument Equipment Co., Ltd., Model JY20002 • 2) Anal thermometer. Brand PHYSITEMP, model BAT-12 Formulation of Reagents • 1) TNF-α: TNF-α was centrifuged quickly (10000 rmp, 30 s) before opening the lid. One bottle of TNF-α (1 mg) was dissolved in 1 mL of sterile water to prepare a mother liquor with a concentration of 1 mg/mL. The mother liquor was stored at 4° C. and cm be stored for one week, 1000 μL of the mother liquor was weighed and added to 5667 μL of sterile water, and then 333 mg of trehalose was added and dissolved to prepare a working solution. • 2) zVAD: […] of zVAD was weighed and added to 480 μL of DMSO, and the mixture was vortexed, sonicated, and heated at 37° C., and then 15.52 mL of physiological saline was added. A working solution with a concentration of 1.25 mu/mL was prepared. Assay Steps • 1) The mice were reared adaptively for 3 days, and then randomly grouped into cages, 5 mice in each cage. Ear tags were cut. • 2) Firstly, the mice were given the corresponding compound by gavage according to their body weight, and then injected intraperitoneally with zVAD at a dose of 250 μg per mouse. After the intraperitoneal injection of zVAD, the anal temperature was measured immediately (0 h), and the time was recorded. The time when mice were given zVAD was defined as the 0th hour (0 h). • 3) After 15 minutes, TNF-α was injected through the tail vein at a dose of 200 μL per mouse, and then the anal temperature was measured 15 minutes later (0.5 h). • 4) After 1 h, zVAD was injected intraperitoneally at a dose of 125 μg per mouse, and then the anal temperature was measured immediately (1 h). The anal temperature was measured again at 2 h, 3 h, and 4 h.

The nature of data set [2]: In vitro Caco-2 cell permeability assay. Type of data set: in vitro ADME. To be noted: human, pH 7.4, Caco-2, 2 μM. The method, then:
MEM (minimum essential medium) supplemented with 2 mM L-glutamine, 10% Fetal Bovine Serum (FBS), 100 U/mL penicillin-G and 100 μg/mL streptomycin was used for cell culture. The conditions for cell culture were 37±1° C., 5% CO2 and saturated humidity. When cells were grown to 80-90% confluency, trypsin (0.05%, w/v)/EDTA (0.02% w/v) digestion solution was added to digest the cells for seeding. The cells were seeded in BD Falcon's Transwell-96-well plate at a seeding density of 1×10^5 cells/cm^2. The cells were cultured in a carbon dioxide incubator for 22 days and then used for transport assay. […]
In this assay, liquid chromatography tandem mass spectrometry (LC/MS/MS) was used to semi-quantitatively analyze the peak area ratio of the assay compound and the control substances fenoterol, propranolol and digoxin to the internal standard in the starting solution, the receiving solution, and the supernatant of the dosing well. […]
Apparent permeability coefficient (Papp, cm/s), efflux rate and recovery rate were calculated using the following formulae.
The apparent permeability coefficient (Papp, cm/s) was calculated using the following formula: Papp=(dCr/dt)×Vr/(A×C0) […]
The efflux rate was calculated using the following formula: Efflux rate=Papp(BA)/Papp(AB) The recovery rate was calculated using the following formula: % recovery rate=100×[(Vr×Cr)+(Vd×Cd)]/(Vd×C0) […]

Data set [3] is described as follows: Plasma protein binding rate (PPB), rat plasma. Type of data set: in vitro ADME, SD rats. To be noted: 2 μM, dialysis 4 hours 37° C. As for the experimental part:
796 μL of bank plasma from humans, SD rats and CD-1 mice (plasma purchased from BioreclamationIVT) were weighed, and the assay compound working solution or warfarin working solution was added so that the final concentration of the assay compound and warfarin in the plasma sample was 2 μM. The samples were mixed thoroughly. The final concentration of DMSO in the organic phase was 0.5%, 50 μL of plasma samples of the assay compound and warfarin were pipetted to a sample receiving plate, and the corresponding volume of the corresponding blank plasma or buffer was added immediately, so that the final volume in each sample well was 100 μL, wherein the volume ratio of plasma:dialysis buffer was 1:1. Stop solution was then added to these samples. These samples were used as T0 samples for determination of recovery and stability. The plasma samples of the assay compound and warfarin were added to the dosing end of each dialysis well, and blank dialysis buffer was added to the corresponding receiving end of the dialysis well. […] All samples were subjected to protein precipitation, and then analyzed by LC/MS/MS. Unbound rate (% Unbound), bound rate (% Bound), and recovery rate (% Recovery) of the compound were calculated using the following formulae: % Unbound=100*FC/TC, % Bond=100−% Unbound, and % Recovery=100*[…]/T0, […]

For `CN1C(=S)[C@@H](NC(=O)c2ncn(Cc3ccccc3)n2)COc2cccnc21` [WX009], in data set [1], the “4-hour survival rate of animals” value is on record as 100%. In addition, the “Decrease in mouse body temperature” value came to 0.94 °C in data set [1] (1 hour), 1.2 °C in data set [1] (2 hours), 1.42 °C in data set [1] (3 hours) and 1.52 °C in data set [1] (4 hours). In data set [2] (120 minutes, pH 7.40, read-out: Apparent permeability coefficient), the Papp at 120 min, 2 μM was found to be 18.4 ×10⁻⁶ cm/s. Besides, the efflux ratio at 120 min, 2 μM in data set [2] (Papp(BA)/Papp(AB), read-out: Efflux rate) was 0.75. In data set [3], this compound registered a PPB_Unbound of 29.7%.
